This is an account of results in patent US9232796B2, “Herbicidal compositions comprising 4-amino-3-chloro-5-fluoro-6-(4-chloro-2-fluoro-3-methoxyphenyl) pyridine-2-carboxylic acid or a derivative thereof and acetyl-CoA carboxylase (ACCase) inhibitors” (DOW AGROSCIENCES LLC, priority 2012, dated 2016).

For test [1], the system named is ECHOR. Briefly: Example V (second) postemergence foliar-applied ternary mixtures, greenhouse, direct seeded rice weeds. The format is in vivo, Echinochloa oryzoides (Ard.) Fritsch. The protocol:
Seeds or nutlets of the desired test plant species were planted in a soil matrix prepared by mixing a sandy loam or loam soil (e.g., 32 percent silt, 23 percent clay, and 45 percent sand, with a pH of about 6.5 and an organic matter content of about 1.9 percent) and calcareous grit in an 80 to 20 ratio. The soil matrix was contained in plastic pots with a volume of 1 quart and a surface area of 83.6 square centimeters (cm^2). […] The plants were grown for 8-22 days in a greenhouse with an approximate 14 hr. photoperiod which was maintained at about 29° C. during the day and 26° C. during the night. Nutrients (Peters Excel® 15-5-15 5-Ca 2-Mg and iron chelate) were applied in the irrigation solution as needed and water was added on a regular basis. Supplemental lighting was provided with overhead metal halide 1000-Watt lamps as necessary. The plants were employed for testing when they reached the first through fourth true leaf stage.
(§1) Treatments consisted of the benzyl ester of 4-amino-3-chloro-5-fluoro-6-(4-chloro-2-fluoro-3-methoxy-phenyl)pyridine-2-carboxylic acid (Compound A), formulated as an SC (suspension concentrate), an ACCase inhibitor, and a third herbicidal component, each applied alone and in ternary combination. Forms of compound A were applied on an acid equivalent basis.
(§2) For treatments comprised of formulated compounds, measured amounts of compounds were placed individually in 25 mL glass vials and diluted in a volume of 1.25% (v/v) Agri-Dex® crop oil concentrate to obtain 12× stock solutions. […] Application solutions were prepared by adding an appropriate amount of each stock solution (e.g., 1 mL) and diluted to the appropriate final concentrations with the addition of 9 mL of an aqueous mixture of 1.25% (v/v) crop oil concentrate so that the final spray solutions contained 1.25% (v/v) crop oil concentrate.
(§3) As required, additional water and/or 97:3 v/v acetone/DMSO was added to individual application solutions so that the final acetone and DMSO concentrations of the application solutions being compared were 8.1% and 0.25%, respectively.
(§4) All stock solutions and applications solutions were visually inspected for compound compatibility prior to application. Spray solutions were applied to the plant material with an overhead Mandel track sprayer equipped with a 8002E nozzles calibrated to deliver 187 L/ha over an application area of 0.503 m^2 at a spray height of 18 inches (46 cm) above average plant canopy height. Control plants were sprayed in the same manner with the solvent blank.
The treated plants and control plants were placed in a greenhouse as described above and watered by sub-irrigation to prevent wash-off of the test compounds. After approximately 3 weeks, the condition of the test plants as compared with that of the untreated plants was determined visually and scored on a scale of 0 to 100 percent where 0 corresponds to no injury or growth inhibition and 100 corresponds to complete kill.
(§5) Colby's equation was used to determine the herbicidal effects expected from the mixtures (Colby, S. R. 1967. Calculation of the synergistic and antagonistic response of herbicide combinations. Weeds 15:20-22.).
The following equation was used to calculate the expected activity of mixtures containing three active ingredients, A, B, and C: Expected=A+B+C−((A×B+A×C+B×C)/100)+(A×B×C/10000)

For a further test, the system named is IPOHE. The test can be described thus: Example I postemergence foliar-applied, greenhouse, direct seeded rice weeds. In kind it is in vivo, Ipomoea hederacea Jacq. The text has this: Seeds or nutlets of the desired test plant species were planted in a soil matrix prepared by mixing a loam or sandy loam soil (e.g., 28.6 percent silt, 18.8 percent clay, and 52.6 percent sand, with a pH of about 5.8 and an organic matter content of about 1.8 percent) and calcareous grit in an 80 to 20 ratio. The soil matrix was contained in plastic pots with a volume of 1 quart and a surface area of 83.6 square centimeters (cm^2). When required to ensure good germination and healthy plants, a fungicide treatment and/or other chemical or physical treatment was applied. The plants were grown for 8-22 days in a greenhouse with an approximate 14 hr. photoperiod which was maintained at about 29° C. during the day and 26° C. during the night. Nutrients (Peters Excel® 15-5-15 5-Ca 2-Mg and iron chelate) were applied in the irrigation solution as needed and water was added on a regular basis. Supplemental lighting was provided with overhead metal halide 1000-Watt lamps as necessary. The plants were employed for testing when they reached the first through fourth true leaf stage.
Treatments consisted of the acid or esters of 4-amino-3-chloro-5-fluoro-6-(4-chloro-2-fluoro-3-methoxy-phenyl)pyridine-2-carboxylic acid (Compound A), each formulated as an SC (suspension concentrate), and various herbicidal components alone and in combination.
Other herbicidal components were applied on an acid equivalent (ae) or active ingredient (ai) basis and included acetyl coA carboxylase (ACCase)-inhibiting herbicides (cyclohexanedione and aryloxyphenoxypropionate chemical classes) cyhalofop-butyl formulated as Clincher® SF (285 gr ai/L EC), diclofop-methyl formulated as Hoelon® 3EC, fenoxaprop-p-ethyl+isoxadifen-ethyl formulated as RiceStar® HT (0.58 lb./gal EC), fenoxaprop-p-ethyl+mefenpyr diethyl formulated as Puma® IEC, metamifop formulated as Metamifop EC, haloxyfop-methyl formulated as Gallant Super®, fluazifop-p-butyl formulated as Fusilade® DX, quizalofop-p-ethyl formulated as Assure® II, profoxydim formulated as Aura® 20EC, clethodim applied as Intensity®, sethoxydim formulated as Poast®, and tralkoxydim formulated as Achieve®.
(§6) Treatment requirements were calculated based upon the rates being tested, the concentration of active ingredient or acid equivalent in the formulation, and a 12 mL application volume at a rate of 187 L/ha.
For treatments comprised of formulated compounds, measured amounts of compounds were placed individually in 25 mL glass vials and diluted in a volume of 1.25% (v/v) Agri-Dex® crop oil concentrated to obtain 12× stock solutions. […] Application solutions were prepared by adding an appropriate amount of each stock solution (e.g., 1 mL) and diluted to the appropriate final concentrations with the addition of 10 mL of an aqueous mixture of 1.25% (v/v) crop oil concentrate so that the final spray solutions contained 1.25+/−0.05% (v/v) crop oil concentrate.
All stock solutions and applications solutions were visually inspected for compound compatibility prior to application. Spray solutions were applied to the plant material with an overhead Mandel track sprayer equipped with a 8002E nozzles calibrated to deliver 187 L/ha over an application area of 0.503 m^2 at a spray height of 18 to 20 inches (46 to 50 cm) above average plant canopy height. Control plants were sprayed in the same manner with the solvent blank.
The treated plants and control plants were placed in a greenhouse as described above and watered by sub-irrigation to prevent wash-off of the test compounds. After approximately 3 weeks, the condition of the test plants as compared with that of the untreated plants was determined visually and scored on a scale of 0 to 100 percent where 0 corresponds to no injury or growth inhibition and 100 corresponds to complete kill. […]

The subject of test [2] is ECHOR. The test can be described thus: Example II in-water applied, greenhouse, transplanted paddy rice weeds. The format is in vivo, Echinochloa oryzoides (Ard.) Fritsch. To be noted: in-water. The protocol: (§7) Weed seeds or nutlets of the desired test plant species were planted in puddled soil (mud) prepared by mixing a shredded, non-sterilized mineral soil (50.5 percent silt, 25.5 percent clay, and 24 percent sand, with a pH of about 7.6 and an organic matter content of about 2.9 percent) and water at a 1:1 volumetric ratio. The prepared mud was dispensed in 365 mL aliquots into 16-ounce (oz.) non-perforated plastic pots with a surface area of 86.59 square centimeters (cm^2) leaving a headspace of 3 centimeters (cm) in each pot. Mud was allowed to dry overnight prior to planting or transplanting. Rice seeds were planted in Sun Gro MetroMix® 306 planting mixture, which typically has a pH of 6.0 to 6.8 and an organic matter content of about 30 percent, in plastic plug trays. Seedlings at the second or third leaf stage of growth were transplanted into 860 mL of mud contained in 32-oz. non-perforated plastic pots with a surface area of 86.59 cm^2 4 days prior to herbicide application. The paddy was created by filling the headspace of the pots with 2.5 to 3 cm of water. […] The plants were grown for 4-22 days in a greenhouse with an approximate 14 hr. photoperiod which was maintained at about 29° C. during the day and 26° C. during the night. Nutrients were added as Osmocote® (19:6:12, N:P:K+minor nutrients) at 2 g per 16-oz. pot and 4 g per 32-oz. pot. Water was added on a regular basis to maintain the paddy flood, and supplemental lighting was provided with overhead metal halide 1000-Watt lamps as necessary. The plants were employed for testing when they reached the first through fourth true leaf stage.
(§8) Treatments consisted of the acid or esters of 4-amino-3-chloro-5-fluoro-6-(4-chloro-2-fluoro-3-methoxy-phenyl)pyridine-2-carboxylic acid (compound A) each formulated as an SC (suspension concentrate) and various herbicidal components alone and in combination.
(§9) For formulated compounds, a measured amount was placed in an individual 100 or 200 mL glass vial and was dissolved in a volume of 1.25% (v/v) Agri-Dex® crop oil concentrate to obtain application solutions.
(§10) Applications were made by injecting with a pipetter appropriate amounts of the application solutions, individually and sequentially, into the aqueous layer of the paddy. Control plants were treated in the same manner with the solvent blank. Applications were made so that all treated plant material received the same concentrations of acetone and crop oil concentrate.
(§11) The treated plants and control plants were placed in a greenhouse as described above and water was added as needed to maintain a paddy flood. After approximately 3 weeks the condition of the test plants as compared with that of the untreated plants was determined visually and scored on a scale of 0 to 100 percent where 0 corresponds to no injury or growth inhibition and 100 corresponds to complete kill.
as §5
(§12) The following equation was used to calculate the expected activity of mixtures containing two active ingredients, A and B: Expected=A+B−(A×B/100)

For the next test, the system named is CYPRO. The test is described as above. The format is in vivo, Cyperus rotundus L. On the procedure:
as §7, §8, §9, §10, §11, §5, §12

The next test has as its system ECHCG. The test can be described thus: Example V (second) postemergence foliar-applied ternary mixtures, greenhouse, direct seeded rice weeds. The format is in vivo, Echinochloa crus-galli (L.) Beauv.
Excerpt: Seeds or nutlets of the desired test plant species were planted in a soil matrix prepared by mixing a sandy loam or loam soil (e.g., 32 percent silt, 23 percent clay, and 45 percent sand, with a pH of about 6.5 and an organic matter content of about 1.9 percent) and calcareous grit in an 80 to 20 ratio. The soil matrix was contained in plastic pots with a volume of 1 quart and a surface area of 83.6 square centimeters (cm^2). When required to ensure good germination and healthy plants, a fungicide treatment and/or other chemical or physical treatment was applied. The plants were grown for 8-22 days in a greenhouse with an approximate 14 hr. photoperiod which was maintained at about 29° C. during the day and 26° C. during the night. Nutrients (Peters Excel® 15-5-15 5-Ca 2-Mg and iron chelate) were applied in the irrigation solution as needed and water was added on a regular basis. Supplemental lighting was provided with overhead metal halide 1000-Watt lamps as necessary. The plants were employed for testing when they reached the first through fourth true leaf stage.
as §1
The ACCase inhibitor component was applied on an active ingredient basis and included cyhalofop-R-butyl formulated as Clincher® SF, fenoxaprop-p-ethyl formulated as RiceStar® HT, and profoxydim formulated as Aura® 20EC. Other herbicidal components were applied on an active ingredient or acid equivalent basis depending on the compound and included penoxsulam formulated as Grasp® SC, bentazon sodium formulated as Basagran®, triclopyr […] (TEA) salt formulated as Grandstand® R, bispyribac sodium formulated as Regiment® 80WP, imazamox ammonium formulated as Beyond®, benzobicyclon, quinclorac formulated as Facet® 75DF, glyphosate dimethylammonium (DMA) salt formulated as Durango® DMA, glufosinate ammonium formulated as Ignite® 280, fentrazamide formulated as an emulsifiable concentrate (EC), propyrisulfuron formulated as Zeta One®, and indanofan (technical grade material).
as §6, §2, §3, §4
The treated plants and control plants were placed in a greenhouse as described above and watered by sub-irrigation to prevent wash-off of the test compounds. […]

Molecules are shown by their SMILES.

Consider `CCCc1ccc2nc(Cl)c(S(=O)(=O)NC(=O)Nc3nc(OC)cc(OC)n3)n2n1` [Propyrisulfuron], for which the “Visual Weed Control (%) - 22 DAA ECHOR Obs” value with ECHOR [1] (22.5 gai/ha) worked out at 55%.

With `CCCCOC(=O)[C@@H](C)Oc1ccc(Oc2ccc(C(F)(F)F)cn2)cc1` [Fluazifop-p-butyl, butyl(2R)-2-[4-[[5-(trifluoromethyl)-2-pyridinyl]oxy]phenoxy]propanoate, reference compound], the “Visual Weed Control (%) - 19 DAA IPOHE Obs” value in the test with IPOHE (45 gae/ha), with IPOHE (90 gae/ha) and in the test on IPOHE (180 gae/ha) was 0% in each case. Further, the “Visual Weed Control (%) - 21 DAA ECHOR Obs” value is 0% with ECHOR [2] (45 gai/ha) and 25% with ECHOR [2] (Fluazifop-P-butyl 90 gae/ha). The “Visual Weed Control (%) - 21 DAA CYPRO Obs” value with CYPRO (Fluazifop-P-butyl 90 gae/ha) and in the test on CYPRO (Fluazifop-P-butyl 180 gae/ha) was 0% throughout.

For `CCN(C(=O)n1nnn(-c2ccccc2Cl)c1=O)C1CCCCC1` [Fentrazamide], the “Visual Weed Control (%) - 22 DAA ECHCG Obs” value in the test on ECHCG (33.75 gai/ha) and with ECHCG (67.5 gai/ha) was 0% throughout. Moreover, the “Visual Weed Control (%)- 22 DAA ECHOR Obs” value with ECHOR [1] (33.75 gai/ha) was determined as 3%; in the test with ECHOR [1] (67.5 gai/ha) it was 0%.
